{"source": "paper PMC10590117", "about": "(International Journal of Nanomedicine, 2023)", "origin": "cited, not measured here", "settings": "humans"}
{"compound": "COc1cc(/C=C/C(=O)CC(=O)/C=C/c2ccc(O)c(OC)c2)ccc1O", "note": "[curcumin, Curcumin]", "values": [{"measurement": "Peroral bioavailability", "value": "~1", "unit": "%"}]}
